compound: CCN1CCN(c2ccc(Nc3cc(N(C)C(=O)Nc4c(Cl)c(OC)cc(OC)c4Cl)ncn3)cc2)CC1 [BGJ398]; test: relative viability (nuclei count vs DMSO), 5 days (fraction); higher = more cells survive; details: 0.01 µM
Summary of the method: (§1)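 Only plates meeting two conditions passed: control CV below 25% and at least one doubling. Lung cancer cell lines, kept overnight at 37 °C in 1536-well plates, were pinned with five library-drug doses (not always all listed) √10 apart on vehicle-anchored plates and grown 5 days without medium change. A one-step fix, permeabilisation and Hoechst stain preceded 4× imaging and MetaXpress nuclear counting. Viability equals treated-well nuclei divided by vehicle-well nuclei, as the median over plates.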

Cell Line | relative viability
201T | 1.18
NCI-H1915 | 0.971
HCC-827 | 0.932
LXF-289 | 0.949
NCI-H23 | 0.994
NCI-H1299 | 0.99
NCI-H647 | 0.869
CAL-12T | 0.947
NCI-H1651 | 0.921
EPLC-272H | 0.898
NCI-H2228 | 0.814
NCI-H1792 | 0.903
NCI-H1355 | 0.943
NCI-H3122 | 0.934
NCI-H1437 | 0.978
NCI-H1755 | 0.933
NCI-H2023 | 0.872
HCC-15 | 1.01
NCI-H1793 | 0.877
PC-14 | 1.01
EKVX | 0.865
LC-2-ad | 0.977
NCI-H1563 | 0.992
NCI-H1944 | 0.869
NCI-H1975 | 0.876
RERF-LC-KJ | 1.04
ABC-1 | 0.891
NCI-H358 | 0.843
NCI-H650 | 0.883
PC-3 [JPC-3] | 1.05

same assay, conditions: 0.03162 µM

Cell Line | relative viability
201T | 0.93
NCI-H1915 | 1.02
LXF-289 | 0.948
NCI-H23 | 0.974
NCI-H1299 | 1.05
NCI-H647 | 1.07
CAL-12T | 1.02
NCI-H1651 | 0.96
EPLC-272H | 0.899
NCI-H2228 | 1.18
NCI-H1792 | 0.851
NCI-H1355 | 0.961
NCI-H3122 | 1.01
NCI-H1437 | 1.01
NCI-H1755 | 1.06
NCI-H2023 | 0.998
HCC-15 | 1.01
NCI-H1793 | 0.644
PC-14 | 0.732
EKVX | 0.942
LC-2-ad | 1.03
NCI-H1563 | 0.993
NCI-H1944 | 0.985
NCI-H1975 | 1.06
RERF-LC-KJ | 1.05
ABC-1 | 0.988
NCI-H358 | 0.942
NCI-H650 | 1.21

same assay, conditions: 0.1 µM

Cell Line | relative viability
201T | 0.96
NCI-H1915 | 0.995
HCC-827 | 1.01
LXF-289 | 0.944
NCI-H23 | 0.966
NCI-H1299 | 1
NCI-H647 | 1.03
CAL-12T | 0.935
NCI-H1651 | 1.08
EPLC-272H | 0.911
NCI-H2228 | 1.38
NCI-H1792 | 0.704
NCI-H1355 | 1.02
NCI-H3122 | 1.04
NCI-H1437 | 1
NCI-H1755 | 1.05
NCI-H2023 | 0.997
HCC-15 | 1.07
NCI-H1793 | 0.927
PC-14 | 1.04
EKVX | 1.08
LC-2-ad | 0.977
NCI-H1563 | 0.936
NCI-H1944 | 0.973
NCI-H1975 | 1.09
RERF-LC-KJ | 1.06
ABC-1 | 0.902
NCI-H358 | 1.1
NCI-H650 | 1.02
PC-3 [JPC-3] | 1.05

same assay, conditions: 0.3162 µM

Cell Line | relative viability
201T | 0.95
NCI-H1915 | 0.965
HCC-827 | 0.962
LXF-289 | 0.875
NCI-H23 | 0.937
NCI-H1299 | 0.993
NCI-H647 | 0.867
CAL-12T | 0.929
NCI-H1651 | 0.936
EPLC-272H | 0.785
NCI-H2228 | 0.876
NCI-H1792 | 0.811
NCI-H1355 | 0.971
NCI-H3122 | 0.977
NCI-H1437 | 1
NCI-H1755 | 0.963
NCI-H2023 | 0.977
HCC-15 | 1.13
NCI-H1793 | 0.698
PC-14 | 0.766
EKVX | 0.871
LC-2-ad | 0.994
NCI-H1563 | 0.831
NCI-H1944 | 0.873
NCI-H1975 | 0.937
RERF-LC-KJ | 0.987
ABC-1 | 0.816
NCI-H358 | 0.882
NCI-H650 | 1.03
PC-3 [JPC-3] | 0.695

same assay, conditions: 1 µM

Cell Line | relative viability
201T | 0.845
NCI-H1915 | 0.939
HCC-827 | 1.04
LXF-289 | 0.942
NCI-H23 | 0.979
NCI-H1299 | 1.02
NCI-H647 | 0.799
CAL-12T | 0.942
NCI-H1651 | 0.87
EPLC-272H | 0.778
NCI-H2228 | 0.963
NCI-H1792 | 0.652
NCI-H1355 | 0.795
NCI-H3122 | 1.01
NCI-H1437 | 0.832
NCI-H1755 | 1.01
NCI-H2023 | 1.01
HCC-15 | 0.887
NCI-H1793 | 0.808
PC-14 | 0.93
EKVX | 0.986
LC-2-ad | 0.906
NCI-H1563 | 0.701
NCI-H1944 | 0.946
NCI-H1975 | 0.866
RERF-LC-KJ | 1.05
ABC-1 | 0.927
NCI-H358 | 1.3
NCI-H650 | 0.665
PC-3 [JPC-3] | 0.919

compound: C1=CC2=NC=CN=C2C=C1/C=C/3\C(=O)NC(=O)S3; test: as above; details: 0.02 µM
Summary of the method: as §1

Cell Line | relative viability
201T | 0.823
NCI-H1915 | 0.98
HCC-827 | 0.989
LXF-289 | 0.996
NCI-H23 | 1.01
NCI-H1299 | 0.996
NCI-H647 | 0.959
CAL-12T | 0.962
NCI-H1651 | 0.959
EPLC-272H | 0.939
NCI-H2228 | 0.898
NCI-H1792 | 0.956
NCI-H1355 | 0.821
NCI-H3122 | 1
NCI-H1437 | 1.01
NCI-H1755 | 0.887
NCI-H2023 | 0.94
HCC-15 | 1
NCI-H1793 | 0.81
PC-14 | 1.02
EKVX | 0.927
LC-2-ad | 0.973
NCI-H1563 | 1.06
NCI-H1944 | 0.902
NCI-H1975 | 0.842
RERF-LC-KJ | 0.908
ABC-1 | 0.977
NCI-H358 | 1.08
NCI-H650 | 0.951
PC-3 [JPC-3] | 0.991

same assay, conditions: 0.06325 µM

Cell Line | relative viability
201T | 1.05
NCI-H1915 | 1.1
HCC-827 | 0.984
LXF-289 | 0.95
NCI-H23 | 1.21
NCI-H1299 | 1.04
NCI-H647 | 1.13
CAL-12T | 0.953
NCI-H1651 | 0.876
EPLC-272H | 0.902
NCI-H2228 | 1.06
NCI-H1792 | 0.783
NCI-H1355 | 0.984
NCI-H3122 | 1.04
NCI-H1437 | 0.983
NCI-H1755 | 0.949
NCI-H2023 | 0.966
HCC-15 | 0.921
NCI-H1793 | 0.729
PC-14 | 1.02
EKVX | 0.885
LC-2-ad | 0.987
NCI-H1563 | 0.93
NCI-H1944 | 1.07
NCI-H1975 | 1.02
RERF-LC-KJ | 1.02
ABC-1 | 0.987
NCI-H358 | 0.959
NCI-H650 | 1.04
PC-3 [JPC-3] | 1.07

same assay, conditions: 0.2 µM

Cell Line | relative viability
201T | 1.03
NCI-H1915 | 1.07
HCC-827 | 1.02
LXF-289 | 0.956
NCI-H23 | 1.1
NCI-H1299 | 1.02
NCI-H647 | 1.08
CAL-12T | 1.08
NCI-H1651 | 0.994
EPLC-272H | 0.98
NCI-H2228 | 1.22
NCI-H1792 | 0.927
NCI-H1355 | 1.05
NCI-H3122 | 0.975
NCI-H1437 | 1.04
NCI-H1755 | 0.986
NCI-H2023 | 1.02
HCC-15 | 0.972
NCI-H1793 | 1.02
PC-14 | 1.01
EKVX | 0.987
LC-2-ad | 1.11
NCI-H1563 | 1.11
NCI-H1944 | 1.09
NCI-H1975 | 0.964
RERF-LC-KJ | 1
ABC-1 | 0.893
NCI-H358 | 0.955
NCI-H650 | 1.07
PC-3 [JPC-3] | 1.06

same assay, conditions: 0.6325 µM

Cell Line | relative viability
201T | 0.954
NCI-H1915 | 0.966
HCC-827 | 1.04
LXF-289 | 0.97
NCI-H23 | 0.876
NCI-H1299 | 1
NCI-H647 | 0.84
CAL-12T | 0.971
NCI-H1651 | 0.877
EPLC-272H | 0.799
NCI-H2228 | 0.898
NCI-H1792 | 0.857
NCI-H1355 | 0.923
NCI-H3122 | 0.949
NCI-H1437 | 0.964
NCI-H1755 | 0.925
NCI-H2023 | 0.886
HCC-15 | 0.921
NCI-H1793 | 0.739
PC-14 | 0.982
EKVX | 0.936
LC-2-ad | 0.917
NCI-H1563 | 0.822
NCI-H1944 | 0.871
NCI-H1975 | 0.884
RERF-LC-KJ | 0.948
ABC-1 | 0.931
NCI-H358 | 0.887
NCI-H650 | 0.914
PC-3 [JPC-3] | 1

same assay, conditions: 2 µM

Cell Line | relative viability
201T | 0.818
NCI-H1915 | 0.966
HCC-827 | 1.05
LXF-289 | 1.01
NCI-H23 | 0.753
NCI-H1299 | 1.01
NCI-H647 | 0.938
CAL-12T | 0.951
NCI-H1651 | 0.884
EPLC-272H | 0.733
NCI-H2228 | 0.842
NCI-H1792 | 0.411
NCI-H1355 | 0.875
NCI-H3122 | 0.984
NCI-H1437 | 0.703
NCI-H1755 | 0.93
NCI-H2023 | 0.773
HCC-15 | 0.818
NCI-H1793 | 0.736
PC-14 | 0.989
EKVX | 0.786
LC-2-ad | 0.758
NCI-H1563 | 1.12
NCI-H1944 | 0.77
NCI-H1975 | 0.813
RERF-LC-KJ | 0.841
ABC-1 | 0.526
NCI-H358 | 0.425
NCI-H650 | 0.529
PC-3 [JPC-3] | 1.04
